The record followed here is patent US9096602B2, “Substituted pyrrolo[2,3-B]pyrazines as ATR kinase inhibitors” (Vertex Pharmaceuticals Incorporated, priority 2011, dated 2015).

Structures are written as SMILES.

For the first experiment, the target named is T1, ATR kinase (full-length ATR) (Homo sapiens, UniProt Q13535).
T1 construct: Assays were carried out at 25° C. in the presence of 5 nM full-length ATR
T1 sequence (Q13535 whole entry): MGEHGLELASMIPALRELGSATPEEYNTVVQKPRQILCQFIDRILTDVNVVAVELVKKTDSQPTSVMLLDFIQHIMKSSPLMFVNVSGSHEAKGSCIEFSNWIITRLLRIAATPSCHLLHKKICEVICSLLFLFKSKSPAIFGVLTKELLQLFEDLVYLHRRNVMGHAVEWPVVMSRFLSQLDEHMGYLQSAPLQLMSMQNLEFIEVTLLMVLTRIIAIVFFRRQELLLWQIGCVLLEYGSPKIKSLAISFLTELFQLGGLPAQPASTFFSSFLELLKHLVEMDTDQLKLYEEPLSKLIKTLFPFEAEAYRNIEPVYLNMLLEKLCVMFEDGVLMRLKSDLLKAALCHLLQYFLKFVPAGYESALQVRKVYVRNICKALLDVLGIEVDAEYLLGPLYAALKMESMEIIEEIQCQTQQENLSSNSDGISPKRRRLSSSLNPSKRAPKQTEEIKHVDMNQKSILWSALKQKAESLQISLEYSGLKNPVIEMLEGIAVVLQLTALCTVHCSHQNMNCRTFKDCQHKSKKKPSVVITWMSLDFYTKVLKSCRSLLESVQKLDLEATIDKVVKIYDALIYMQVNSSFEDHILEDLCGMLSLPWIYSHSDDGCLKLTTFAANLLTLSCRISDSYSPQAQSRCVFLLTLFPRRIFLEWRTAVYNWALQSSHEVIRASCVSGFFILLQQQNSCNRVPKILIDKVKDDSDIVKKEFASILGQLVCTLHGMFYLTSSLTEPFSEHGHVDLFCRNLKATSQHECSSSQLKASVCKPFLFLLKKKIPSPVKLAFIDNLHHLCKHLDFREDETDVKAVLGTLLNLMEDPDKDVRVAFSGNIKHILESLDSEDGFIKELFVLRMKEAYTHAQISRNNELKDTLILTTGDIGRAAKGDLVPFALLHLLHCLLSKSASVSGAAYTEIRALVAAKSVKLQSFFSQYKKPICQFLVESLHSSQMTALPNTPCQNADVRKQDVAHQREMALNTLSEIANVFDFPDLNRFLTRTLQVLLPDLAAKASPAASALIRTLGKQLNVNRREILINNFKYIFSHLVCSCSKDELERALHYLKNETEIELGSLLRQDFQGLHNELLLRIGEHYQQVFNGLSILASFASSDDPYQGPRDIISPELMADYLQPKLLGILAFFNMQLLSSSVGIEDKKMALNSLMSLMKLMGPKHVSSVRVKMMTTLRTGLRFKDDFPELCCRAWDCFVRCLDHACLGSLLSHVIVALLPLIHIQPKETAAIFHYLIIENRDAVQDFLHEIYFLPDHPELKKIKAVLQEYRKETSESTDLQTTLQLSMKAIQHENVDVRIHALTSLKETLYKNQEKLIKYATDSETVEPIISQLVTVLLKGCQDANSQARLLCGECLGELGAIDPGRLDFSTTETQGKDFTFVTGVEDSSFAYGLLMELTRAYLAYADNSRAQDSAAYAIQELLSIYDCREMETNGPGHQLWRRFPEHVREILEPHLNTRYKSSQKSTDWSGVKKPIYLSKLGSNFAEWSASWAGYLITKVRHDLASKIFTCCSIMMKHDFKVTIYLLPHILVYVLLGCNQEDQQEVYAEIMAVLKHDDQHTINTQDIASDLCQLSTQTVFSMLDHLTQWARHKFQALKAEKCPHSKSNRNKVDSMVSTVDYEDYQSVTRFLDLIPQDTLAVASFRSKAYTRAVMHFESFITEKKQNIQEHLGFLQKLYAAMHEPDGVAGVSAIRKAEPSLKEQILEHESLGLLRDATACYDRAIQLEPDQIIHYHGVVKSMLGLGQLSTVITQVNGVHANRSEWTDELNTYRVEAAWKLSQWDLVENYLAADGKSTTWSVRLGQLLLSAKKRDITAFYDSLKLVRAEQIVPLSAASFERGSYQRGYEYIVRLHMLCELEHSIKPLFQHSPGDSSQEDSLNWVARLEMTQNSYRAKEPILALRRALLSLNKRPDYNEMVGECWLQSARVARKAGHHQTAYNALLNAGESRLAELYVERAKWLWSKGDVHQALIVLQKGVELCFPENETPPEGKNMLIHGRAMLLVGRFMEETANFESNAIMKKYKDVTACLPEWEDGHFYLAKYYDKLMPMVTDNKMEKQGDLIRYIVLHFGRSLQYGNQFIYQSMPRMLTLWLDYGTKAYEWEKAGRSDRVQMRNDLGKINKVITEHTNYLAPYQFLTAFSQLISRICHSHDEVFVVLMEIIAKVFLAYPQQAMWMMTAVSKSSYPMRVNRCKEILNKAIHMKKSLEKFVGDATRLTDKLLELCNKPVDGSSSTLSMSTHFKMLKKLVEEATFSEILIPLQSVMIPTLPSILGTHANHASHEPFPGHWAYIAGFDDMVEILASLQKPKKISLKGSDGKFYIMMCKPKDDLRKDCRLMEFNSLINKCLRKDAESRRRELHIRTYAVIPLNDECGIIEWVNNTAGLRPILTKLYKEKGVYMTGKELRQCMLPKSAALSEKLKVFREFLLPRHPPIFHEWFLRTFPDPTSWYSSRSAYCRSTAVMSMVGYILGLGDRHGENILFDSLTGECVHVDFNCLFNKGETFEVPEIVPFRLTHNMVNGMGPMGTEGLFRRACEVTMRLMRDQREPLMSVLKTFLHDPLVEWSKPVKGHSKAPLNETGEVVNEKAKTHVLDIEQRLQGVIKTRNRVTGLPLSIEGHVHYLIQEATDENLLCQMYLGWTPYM
Put plainly: ATR Inhibition Assay (radioactive-phosphate incorporation).
Conditions: not given
The format is biochemical. As for the experimental part: Compounds were screened for their ability to inhibit ATR kinase using a radioactive-phosphate incorporation assay. Assays were carried out in a mixture of 50 mM Tris/HCl (pH 7.5), 10 mM MgCl2 and 1 mM DTT. Final substrate concentrations were 10 μM [y-33P]ATP (3mCi 33P ATP/mmol ATP, Perkin Elmer) and 800 μM target peptide ([…]).
Assays were carried out at 25° C. in the presence of 5 nM full-length ATR. An assay stock buffer solution was prepared containing all of the reagents listed above, with the exception of ATP and the test compound of interest. […] The plate was pre-incubated for 10 minutes at 25° C. and the reaction initiated by addition of 15 μL [y-33P]ATP (final concentration 10 μM).
The reaction was stopped after […] by the addition of 30 μL 0.1M phosphoric acid containing 2 mM ATP. A multiscreen phosphocellulose filter 96-well plate (Millipore, Cat no. MAPHN0B50) was pretreated with 100 μL 0.2M phosphoric acid prior to the addition of 45 μL of the stopped assay mixture. The plate was washed with 5×200 μL 0.2M phosphoric acid.
After removing mean background values for all of the data points, Ki(app) data were calculated from non-linear regression analysis of the initial rate data using the Prism software package (GraphPad Prism version 3.0cx for Macintosh, GraphPad Software, San Diego Calif., USA).
`CC(C)S(=O)(=O)c1ccc(-c2cnc3[nH]cc(C(=O)N4CCC5(CC4)OCCO5)c3n2)cc1` [Compound I-128, 1,4-dioxa-8-azaspiro[4.5]decan-8-yl-[2-(4-isopropylsulfonylphenyl)-5H-pyrrolo[2,3-b]pyrazin-7-yl]methanone]: the Ki was below 100 nM.

The experiment is the same for the next values; noted with them: Ki(app); 5 nM full-length ATR, 10 μM ATP, 800 μM target peptide, 25° C.; class symbols; read-out: ATR Inhibition Ki.
With `Cc1ccc(NC(=O)c2c[nH]c3ncc(-c4ccc(S(=O)(=O)C(C)C)cc4)nc23)cc1` [Compound I-70, 2-(4-isopropylsulfonylphenyl)-N-(p-tolyl)-5H-pyrrolo[2,3-b]pyrazine-7-carboxamide], the Ki lay within 100 to 500 nM.
On the same count and under the same terms, the figure for `CC(C)S(=O)(=O)c1ccc(-c2cnc3[nH]cc(C(=O)N(CCO)c4ccccc4)c3n2)cc1` [Compound I-10, N-(2-hydroxyethyl)-2-(4-isopropylsulfonylphenyl)-N-phenyl-5H-pyrrolo[2,3-b]pyrazine-7-carboxamide] is 100 to 500 nM.
On the same count and under the same terms, the figure for `CC(C)S(=O)(=O)c1ccc(-c2cnc3[nH]cc(C(=O)Nc4ccccc4C#N)c3n2)cc1` [Compound I-41, N-(2-cyanophenyl)-2-(4-isopropylsulfonylphenyl)-5H-pyrrolo[2,3-b]pyrazine-7-carboxamide] is below 100 nM; for `COc1cccc(NC(=O)c2c[nH]c3ncc(-c4ccc(S(=O)(=O)C(C)C)cc4)nc23)c1` [Compound I-11, 2-(4-isopropylsulfonylphenyl)-N-(3-methoxyphenyl)-5H-pyrrolo[2,3-b]pyrazine-7-carboxamide] it is 500 to 5000 nM; for `CC(c1cccc(Cl)c1)N(C)C(=O)c1c[nH]c2ncc(-c3ccc(S(=O)(=O)C(C)C)cc3)nc12` (centres unmarked) [Compound I-126, N-[1-(3-chlorophenyl)ethyl]-2-(4-isopropylsulfonylphenyl)-N-methyl-5H-pyrrolo[2,3-b]pyrazine-7-carboxamide] it is below 100 nM.
Take `CC(C)S(=O)(=O)c1ccc(-c2cnc3[nH]cc(C(=O)Nc4ccccc4N)c3n2)cc1` [Compound I-19, N-(2-aminophenyl)-2-(4-isopropylsulfonylphenyl)-5H-pyrrolo[2,3-b]pyrazine-7-carboxamide]: the Ki lay in the range of 100 to 500 nM.
Turning to `CC(C)S(=O)(=O)c1ccc(-c2cnc3[nH]cc(C(=O)NC4CCS(=O)(=O)C4)c3n2)cc1` (centres unmarked) [Compound I-103, N-(1,1-dioxothiolan-3-yl)-2-(4-isopropylsulfonylphenyl)-5H-pyrrolo[2,3-b]pyrazine-7-carboxamide], the Ki fell in the range of 500 to 5000 nM.
As to `COC[C@H](NC(=O)c1c[nH]c2ncc(-c3ccc(S(=O)(=O)C(C)C)cc3)nc12)c1ccccc1` [Compound I-58, 2-(4-isopropylsulfonylphenyl)-N-[(1R)-2-methoxy-1-phenyl-ethyl]-5H-pyrrolo[2,3-b]pyrazine-7-carboxamide], the Ki is 500 to 5000 nM.
As for `CC(C)S(=O)(=O)c1ccc(-c2cnc3[nH]cc(C(=O)N[C@@H]4c5ccccc5C[C@@H]4O)c3n2)cc1` [Compound I-65, N-[(1R,2S)-2-hydroxyindan-1-yl]-2-(4-isopropylsulfonylphenyl)-5H-pyrrolo[2,3-b]pyrazine-7-carboxamide], the Ki lay within 500 to 5000 nM.
For `Cc1ccc(Cl)cc1CNC(=O)c1c[nH]c2ncc(-c3ccc(S(=O)(=O)C(C)C)cc3)nc12` [Compound I-67, N-[(5-chloro-2-methyl-phenyl)methyl]-2-(4-isopropylsulfonylphenyl)-5H-pyrrolo[2,3-b]pyrazine-7-carboxamide], the Ki was below 100 nM.
With `Cc1cccc([C@@H](CCO)NC(=O)c2c[nH]c3ncc(-c4ccc(S(=O)(=O)C(C)C)cc4)nc23)c1` [Compound I-102, N-[(1R)-3-hydroxy-1-(m-tolyl)propyl]-2-(4-isopropylsulfonylphenyl)-5H-pyrrolo[2,3-b]pyrazine-7-carboxamide], the Ki lay within 100 to 500 nM.
With `CC(C)S(=O)(=O)c1ccc(-c2cnc3[nH]cc(C(=O)NCC4CCCO4)c3n2)cc1` (centres unmarked) [Compound I-63, 2-(4-isopropylsulfonylphenyl)-N-(tetrahydrofuran-2-ylmethyl)-5H-pyrrolo[2,3-b]pyrazine-7-carboxamide], the Ki is below 100 nM.
Consider `CC(c1ccccc1F)N(C)C(=O)c1c[nH]c2ncc(-c3ccc(S(=O)(=O)C(C)C)cc3)nc12` (centres unmarked) [Compound I-109, N-[1-(2-fluorophenyl)ethyl]-2-(4-isopropylsulfonylphenyl)-N-methyl-5H-pyrrolo[2,3-b]pyrazine-7-carboxamide], for which the Ki is 500 to 5000 nM.
On the same count and under the same terms, the result for `Cc1ccc(NC(=O)c2c[nH]c3ncc(-c4ccc(S(=O)(=O)C(C)C)cc4)nc23)cc1F` [Compound I-64, N-(3-fluoro-4-methyl-phenyl)-2-(4-isopropylsulfonylphenyl)-5H-pyrrolo[2,3-b]pyrazine-7-carboxamide] reads below 100 nM.
Same read-out and setting: the figure for `Cc1ccc(F)cc1CNC(=O)c1c[nH]c2ncc(-c3ccc(S(=O)(=O)C(C)C)cc3)nc12` [Compound I-87, N-[(5-fluoro-2-methyl-phenyl)methyl]-2-(4-isopropylsulfonylphenyl)-5H-pyrrolo[2,3-b]pyrazine-7-carboxamide] is below 100 nM; for `CCN(C(=O)c1c[nH]c2ncc(-c3ccc(S(=O)(=O)C(C)C)cc3)nc12)c1ccccc1` [Compound I-9, N-ethyl-2-(4-isopropylsulfonylphenyl)-N-phenyl-5H-pyrrolo[2,3-b]pyrazine-7-carboxamide] it is 500 to 5000 nM; for `CC(C)S(=O)(=O)c1ccc(-c2cnc3[nH]cc(C(=O)NC4CCOc5ccccc54)c3n2)cc1` (centres unmarked) [Compound I-86, N-chroman-4-yl-2-(4-isopropylsulfonylphenyl)-5H-pyrrolo[2,3-b]pyrazine-7-carboxamide] it is below 100 nM.
In the case of `CC(C)S(=O)(=O)c1ccc(-c2cnc3[nH]cc(C(=O)NC[C@@H]4CCCC[C@H]4O)c3n2)cc1` [Compound I-33, N-[[(1S,2R)-2-hydroxycyclohexyl]methyl]-2-(4-isopropylsulfonylphenyl)-5H-pyrrolo[2,3-b]pyrazine-7-carboxamide], the Ki was below 100 nM.
With `Cc1ccc([C@H](CCO)NC(=O)c2c[nH]c3ncc(-c4ccc(S(=O)(=O)C(C)C)cc4)nc23)cc1` [Compound I-91, N-[(1S)-3-hydroxy-1-(p-tolyl)propyl]-2-(4-isopropylsulfonylphenyl)-5H-pyrrolo[2,3-b]pyrazine-7-carboxamide], the Ki was in the range of 100 to 500 nM.
For `CC(C)S(=O)(=O)c1ccc(-c2cnc3[nH]cc(C(=O)NC4(CO)CCCC4)c3n2)cc1` [Compound I-44, N-[1-(hydroxymethyl)cyclopentyl]-2-(4-isopropylsulfonylphenyl)-5H-pyrrolo[2,3-b]pyrazine-7-carboxamide], the Ki fell in the range of 100 to 500 nM.
On the same count and under the same terms, the result for `CC(C)S(=O)(=O)c1ccc(-c2cnc3[nH]cc(C(=O)NC(CO)c4ccccc4)c3n2)cc1` (centres unmarked) [Compound I-42, N-(2-hydroxy-1-phenyl-ethyl)-2-(4-isopropylsulfonylphenyl)-5H-pyrrolo[2,3-b]pyrazine-7-carboxamide] reads below 100 nM.
Same read-out and setting: the figure for `COC[C@H](C)NC(=O)c1c[nH]c2ncc(-c3ccc(S(=O)(=O)C(C)C)cc3)nc12` [Compound I-110, 2-(4-isopropylsulfonylphenyl)-N-[(1S)-2-methoxy-1-methyl-ethyl]-5H-pyrrolo[2,3-b]pyrazine-7-carboxamide] is 100 to 500 nM.

The same experiment, now with this note: Ki(app); 5 nM full-length ATR, 10 μM ATP, 800 μM target peptide, 25° C.; given as numeric lower bound without unit; read-out: ATR Inhibition Ki.
Consider `CC(C)S(=O)(=O)c1ccc(-c2cnc3[nH]cc(C(=O)NCC4CCCCC4)c3n2)cc1` [Compound I-31, N-(cyclohexylmethyl)-2-(4-isopropylsulfonylphenyl)-5H-pyrrolo[2,3-b]pyrazine-7-carboxamide], for which the Ki was above 500 nM.
Same read-out and setting: the result for `CC(C)S(=O)(=O)c1ccc(-c2cnc3[nH]cc(C(=O)N4CCCN(C)CC4)c3n2)cc1` [Compound I-96, [2-(4-isopropylsulfonylphenyl)-5H-pyrrolo[2,3-b]pyrazin-7-yl]-(4-methyl-1,4-diazepan-1-yl)methanone] reads above 4000 nM; that for `CC(C)S(=O)(=O)c1ccc(-c2cnc3[nH]cc(C(=O)Nc4cc(C(C)(C)C)on4)c3n2)cc1` [Compound I-133, N-(5-tert-butylisoxazol-3-yl)-2-(4-isopropylsulfonylphenyl)-5H-pyrrolo[2,3-b]pyrazine-7-carboxamide], above 40 nM; that for `CC(C)S(=O)(=O)c1ccc(-c2cnc3[nH]cc(C(=O)N(CCO)C4CCCCC4)c3n2)cc1` [Compound I-121, N-cyclohexyl-N-(2-hydroxyethyl)-2-(4-isopropylsulfonylphenyl)-5H-pyrrolo[2,3-b]pyrazine-7-carboxamide], above 1000 nM.
With `CC(C)S(=O)(=O)c1ccc(-c2cnc3[nH]cc(C(=O)Nc4ccc(C(N)=O)cc4)c3n2)cc1` [Compound I-47, N-(4-carbamoylphenyl)-2-(4-isopropylsulfonylphenyl)-5H-pyrrolo[2,3-b]pyrazine-7-carboxamide], the Ki is above 250 nM.
On to `CC(C)S(=O)(=O)c1ccc(-c2cnc3[nH]cc(C(=O)N4CCNCC4)c3n2)cc1` [Compound I-137, [2-(4-isopropylsulfonylphenyl)-5H-pyrrolo[2,3-b]pyrazin-7-yl]-piperazin-1-yl-methanone], for which the Ki was above 250 nM.
